# Measurements from US9233121B2, “Compositions and methods for the treatment of cancer” (BOARD OF REGENTS OF THE UNIVERSITY OF NEBRASKA, priority 2011, dated 2016).
# Assays:
# Type in all cases: cell-based, human
# SW1990-SP cells [1] = assay: Drug sensitivity: gemcitabine treatment of SP cells; details: 6.0 μM gemcitabine, 4, 10 and 20 days
# Description: (§1) Both SP and NSP cells were cultured in gelatinized tissue culture dishes in stem cell specific medium containing Dulbecco's Modified Eagle's Medium (DMEM; GIBCO) and F12 supplemented with 10% ES specific fetal bovine serum (FBS; Invitrogen), L-glutamine (GIBCO), 100 nM nonessential amino acids (GIBCO), 1000 U/ml LIF (Sigma), bFGF (Invitrogen) and Pen/Strp. Two different conditions were maintained for both SP and NSP cells. First, both SP and NSP cells were maintained in the above-mentioned stem cell specific media and in another condition both the cells were maintained for a few days in 10% FBS containing DMEM media which was replaced with stem cell specific medium. The SP cells have also been grown in stem cell specific media and NSP cells have been grown in 10% FBS containing DMEM media.
# (§2) The human hPaf1/PD2 region was targeted with specific siRNA (sequence 5′-[…]-3′; SEQ ID NO: 1). Synthetic sense and antisense oligonucleotides (Dharmacon, Lafayette, Colo.) were annealed in 100 mM potassium acetate, 30 mM HEPES-KOH (pH 7.4), and 2 mM magnesium acetate for one minute at 90° C. and one hour at 37° C., and frozen. […]
# (§3) Tumor relapse occurs in cancer patients due to the important phenomena known as drug resistance. […] The expression of ALDH1 was analyzed in the gemcitabine treated SW1990-SP cells.
# SW1990 NSP cells = assay: Drug sensitivity: gemcitabine treatment of NSP cells; details: 6.0 μM gemcitabine, several days
# Description: as §1, §2, §3
# ALDH1 = assay: Western blot of ALDH1 in gemcitabine treated SP cells; details: gemcitabine (6 μM) treated SW1990-SP cells compared to non-treated SP cells
# Description: (§4) SP and NSP cells were processed for protein extraction and western blotting using standard procedures. Briefly, the cells were washed twice in PBS and lysed in RIPA buffer (100 mM Tris, 5 mM EDTA, 5% NP40; pH8.0) containing protease inhibitors (1 mM phenyl-methyl sulphonyl fluoride, 1 μg/ml aprotinin, 1 μg/ml leupeptin) and kept at 4° C. and supernatant were collected. Resolved proteins were transferred on to the PVDF membrane. After a quick wash in PBST (Phosphate buffered saline and 0.1% Tween 20), the membranes were blocked in 5% nonfat dry milk in PBS for at least 1 hour and then incubated with primary antibodies (anti-hPaf1/PD2, anti-ALDH1, anti-CD133, anti-CD44, anti-Shh and anti-β-actin) (diluted in 3% BSA in PBS) for overnight at 4° C. Then the membrane was washed (3×10 minutes) in PBST at room temperature and probed with 1:2000 diluted horseradish peroxidase-conjugated anti-mouse or anti-rabbit secondary antibodies for 1 hour at room temperature and washed 5×10 minutes with PBST. The signal was detected with an ECL chemiluminescence kit (Amersham Bioscience, UK).
# as §3
# hPaf1/PD2 = assay: Western blot of hPaf1/PD2 in gemcitabine treated SP cells; details: gemcitabine (6 μM) treated SW1990-SP cells compared to untreated SP cells
# Description: as §4
# SW1990-SP cells [2] = assay: hPaf1/PD2 knockdown with gemcitabine treatment in SP cells: phenotype, viability, FACS apoptosis
# Description: The human hPaf1/PD2 region was targeted with specific siRNA (sequence 5′-[…]-3′; SEQ ID NO: 1). Synthetic sense and antisense oligonucleotides (Dharmacon, Lafayette, Colo.) were annealed in 100 mM potassium acetate, 30 mM HEPES-KOH (pH 7.4), and 2 mM magnesium acetate for one minute at 90° C. and one hour at 37° C., and frozen. Oligonucleotides were transfected into cells with TransIT-TKO (Mirus, Madison, Wis.) in accordance with the supplier's recommendations. Gemcitabine (6 μM) treatment was done for 20 days.
# Following the previous drug sensitivity experiment, hPaf1/PD2 was transiently knocked down using RNAi oligos. The knockdown was carried out in vitro under stem cell specific culture condition.
smiles,measurement,setting,value
Nc1ccn([C@@H]2O[C@H](CO)[C@@H](O)C2(F)F)c(=O)n1 [gemcitabine],growth of SP cells on drug treatment,SW1990-SP cells [1],"continued to grow even after 4, 10 and 20 days of treatment"
same,cell death of NSP cells on drug treatment,SW1990 NSP cells,Cell death was observed
same,expression of ALDH1 (western blot),ALDH1,significantly elevated expression of ALDH1
same,expression of hPaf1/PD2 (western blot),hPaf1/PD2,maintained
same,"percentage of cell death (FACS-apoptosis analysis, PI staining)",SW1990-SP cells [2]; hPaf1/PD2 knockdown SP cells with gemcitabine treatment compared to control cells,increased percentage of cell death
same,viability of SP cells,SW1990-SP cells [2]; seven days gemcitabine with transient knockdown (72 hours) of hPaf1/PD2 in SW1990-SP cells,decreased the viability of SP cells
